Assays:
[1] = tested on: LNCaP cells; assay: Cytotoxicity: cell morphology of treated LNCaP cells; format: cell-based, human; conditions: LNCaP cells treated for 48 h, 10 μM
Excerpt: From this extract, the pure active compound, Sintokamide A (CB3.1) was isolated and to ensure that the inhibitory effect of CB3.1 was not due to generally cytotoxicity, cell morphology of LNCaP cells was examined. […] Cells treated with R1881 are also shown to provide an indication of cell number and for comparison.

[2] = tested on: PSA mRNA; assay: Androgen-induced PSA mRNA levels in LNCaP cells (qRT-PCR); format: cell-based, human; conditions: 10 μg/ml, 1 hour pretreatment, R1881 1 nM, 16 hours
Description: Levels of PSA mRNA were measured by quantitative real-time (qRT)-PCR and normalized to levels of GAPDH mRNA (housekeeping gene). White bar: no R1881. Black bars: R1881 (1 nM). MNE: mean normalized expression. DMSO (no R1881) was arbitrarily set at 1.0 for each individual experiment. Bars represent the mean±SE from 3 separate experiments using triplicate technical samples from each experiment.
PSA is an androgen-regulated gene containing several well-characterized androgen response elements (AREs) in the enhancer and promoter regions. Levels of PSA mRNA are induced by androgen by a mechanism dependent androgen receptor. To test if sintokamides would also block endogenous gene expression induced by androgen, levels of PSA mRNA were measured in response to the synthetic androgen R1881.

[3] = molecular target: T1, androgen receptor (AR) (Homo sapiens, UniProt P10275, T878A); assay: PSA (6.1 kb)-luciferase reporter assay in LNCaP cells; format: cell-based; conditions: 5 μg/ml
T1 construct: endogenous in cells; host or cells: LNCaP human prostate cancer cells
T1 sequence (P10275 1-920 T878A): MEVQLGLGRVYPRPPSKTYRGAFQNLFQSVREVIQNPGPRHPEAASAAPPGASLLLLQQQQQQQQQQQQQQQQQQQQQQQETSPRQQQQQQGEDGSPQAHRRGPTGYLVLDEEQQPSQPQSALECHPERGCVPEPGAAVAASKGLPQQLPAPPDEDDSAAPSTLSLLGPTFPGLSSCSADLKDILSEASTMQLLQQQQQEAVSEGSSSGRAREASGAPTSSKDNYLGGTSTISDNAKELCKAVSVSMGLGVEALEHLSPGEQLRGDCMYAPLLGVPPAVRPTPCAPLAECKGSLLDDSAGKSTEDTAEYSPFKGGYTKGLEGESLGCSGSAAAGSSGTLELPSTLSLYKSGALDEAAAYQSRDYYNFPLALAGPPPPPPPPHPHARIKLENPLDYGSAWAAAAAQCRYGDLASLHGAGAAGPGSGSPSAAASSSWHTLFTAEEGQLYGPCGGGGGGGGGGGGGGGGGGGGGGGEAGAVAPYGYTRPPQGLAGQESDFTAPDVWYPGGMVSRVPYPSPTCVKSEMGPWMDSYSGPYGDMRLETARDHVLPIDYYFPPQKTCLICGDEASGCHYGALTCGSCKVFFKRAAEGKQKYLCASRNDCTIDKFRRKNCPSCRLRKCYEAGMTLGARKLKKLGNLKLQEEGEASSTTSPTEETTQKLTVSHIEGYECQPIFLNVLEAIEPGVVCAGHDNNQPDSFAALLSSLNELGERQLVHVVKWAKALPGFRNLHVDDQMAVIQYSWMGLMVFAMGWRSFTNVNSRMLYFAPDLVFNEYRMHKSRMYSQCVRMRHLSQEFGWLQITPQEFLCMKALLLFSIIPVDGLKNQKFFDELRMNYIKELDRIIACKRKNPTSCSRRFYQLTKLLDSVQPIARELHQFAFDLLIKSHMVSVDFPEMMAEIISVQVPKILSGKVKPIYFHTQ
Description: White bars represent no steroid (ethanol control). Wherein glucocorticoid receptor (GR) and progesterone receptor (PR).
The cells were harvested 24 hours later and analyzed for luciferase activity. The data is normalized to protein that was measured using Bradford assay.
Sequence similarities of amino acids in the AR with related human steroid receptors (glucocorticoid receptor (GR) and progesterone receptor (PR)) are significant in some domains such as the DNA-binding-domain (DBD). Although the AR-NTD shares less than 15% homology with the PR and GR, these receptors do interact with some of the same proteins such as SRC-1 (steroid receptor coactivator-1). […] Cells were co-transfected with expression plasmids for full-length hGR and PRβ and the relative reporter (i.e., pGR-Luc or PRE-E1b-Luc reporters). Cells were then treated with ethanol vehicle, dexamethasone (GR), 4-pregnene-3,20 dione (progesterone) (PR) followed by measurement of luciferase activity.
Activation of the endogenous AR was measured in LNCaP human prostate cancer cells by measuring an androgen-responsive reporter containing androgen response elements (AREs). The PSA (6.1 kb)-luciferase reporter gene construct contains several well-characterized AREs and is induced by androgen.

SMILES: CCC(=O)N[C@H](C[C@H](C)C(Cl)(Cl)Cl)C(=O)N1C(=O)C=C(OC)[C@@H]1C[C@H](C)C(Cl)Cl [CB3.1, Sintokamide A]
- signs of toxicity (cell morphology) [1]: no obvious signs of toxicity
- inhibition of androgen-induced levels of PSA mRNA [2]: inhibit
- inhibition of R1881 induction of PSA (6.1)-luciferase ([3]; 1 hour pretreatment, R1881 1 nM, 24 hours): inhibition
- AR activity measured with the PSA (6.1) luciferase reporter ([3]; steroid 10 nM, 24 h): strongly inhibited
